Test results taken from patent publication US5891901A, “Substituted pyrroles” (Hoffmann-La Roche Inc., priority 1997, dated 1999).
pIC50: −log10 of the molar value.

Legend:
MDA-MB435 cells = experiment: Antiproliferative activity, MDA-MB435 epithelial breast carcinoma cell line (MTT); assay type: cell-based; conditions: Homo sapiens, MDA-MB-435, 120 h, MTT at day 5 post-drug addition, values marked * (Compounds A, B, D) are an average of two separate experiments, read-out: Antiproliferative Activity, MDAMB435 IC50
Description: (§1) The epithelial breast carcinoma cell line, MDA-MB435 and the colon carcinoma cell line, SW480, were purchased from ATCC (American Type Culture Collection) and were grown in culture in medium as recommended by ATCC. For analysis of the effect of various compounds on growth of these cells, the cells were plated at a concentration of 1500 cells/well in a 96 well tissue culture plate ("test plate"). The day after the cells were plated, the compounds to be analyzed were dissolved in 100% DMSO (dimethyl sulfoxide) to yield a 10 mM stock solution. Each compound was diluted in H2 O to 1 mM and was added to triplicate wells in the first row of a 96 well master plate which contains medium to yield a final concentration of 40 μM. The compounds were then serially diluted in medium in the "master plate". The diluted compound(s) were then transferred to test plates containing cells. A row of vehicle "control cells" received DMSO. The final concentration of DMSO in each well was 0.1%. At day 5 post-drug addition, the plate containing MDA-MB435 cells were analyzed as follows. Plates containing SW480 cells were analyzed at day 7 post-drug addition as follows.
(§2) MTT ([3-(4,5-dimethylthiazole-2-yl)-2,5-diphenyl-2H-tetrazolium bromide]; thiazolyl blue) was added to each well to yield a final concentration of 1 mg/ml. The plate was then incubated at 37° C. for 21/2-3 hours. The MTT containing medium was then removed and 50 μl of 100% ethanol was added to each well to dissolve the formazan. The absorbences were then read using an automated plate reader (Bio-tek microplate reader). IC50 's were calculated using the Reed and Munsch equation, see, Am. J. Hygiene Vol. 27 pgs. 493-497, 1938.

SW480 cells = experiment: Antiproliferative activity, SW480 colon carcinoma cell line (MTT); assay type: cell-based; conditions: Homo sapiens, 168 h, MTT at day 7 post-drug addition, values marked * (Compounds A, B, C) are an average of two separate experiments
Description: as §1, §2

Row | SMILES | pIC50 (MDA-MB435 cells) | pIC50 (SW480 cells)
1 | Cn1cc(C2=C(c3cn(C)c4cc(CC#N)ccc34)C(=O)NC2=O)c2ccccc21 [Compound E, {1-methyl-3-[4-(1-methyl-1H-indol-3-yl)-2,5-dioxo-2,5-dihydro-1H-pyrrol-3-yl]-1H-indol-6-yl}-acetonitrile] | 6.70 | –
2 | CCc1ccc2c(C3=C(c4cn(C)c5ccccc45)C(=O)NC3=O)cn(C)c2c1 [Compound D, 3-(6-ethyl-1-methyl-1H-indol-3-yl)-4-(1-methyl-1H-indol-3-yl)-pyrrole-2,5-dione] | 7.10 | –

These reach a higher pIC50 (MDA-MB435 cells). Values come first.

Row | pIC50 (MDA-MB435 cells) | pIC50 (SW480 cells) | SMILES
3 | 7.35 | 7.15 | CSc1ccc2c(C3=C(c4cn(C)c5ccccc45)C(=O)NC3=O)cn(C)c2c1 [Compound B, 3-(6-methylsulfanyl-1-methyl-1H-indol-3-yl)-4-(1-methyl-1H-indol-3-yl)-pyrrole-2,5-dione]
4 | 7.48 | 7.54 | Cc1ccc2c(C3=C(c4cn(C)c5ccccc45)C(=O)NC3=O)cn(C)c2c1 [Compound A, 3-(1,6-dimethyl-1H-indol-3-yl)-4-(1-methyl-1H-indol-3yl)-pyrrole-2,5-dione]
5 | 7.52 | 7.15 | Cn1cc(C2=C(c3cn(C)c4cc(O)ccc34)C(=O)NC2=O)c2ccccc21 [Compound C, 3-(6-hydroxy-1-methyl-1H-indol-3-yl)-4-(1-methyl-1H-indol-3-yl)-pyrrole-2,5-dione]
